The test system of one assay is MMPs. The settings on record: MMPs that cleave the substrate, commercially available substrates, cited from earlier work.
Assay [1] deals with T1, MT1-MMP (MMP-14) recombinant catalytic domain (Homo sapiens, UniProt P50281).
T1 construct: recombinant MT1-MMP catalytic domain (BIOMOL, Plymouth Meeting, Pa.); purchased BIOMOL, Plymouth Meeting, Pa
The assay can be described thus: In vitro validation of MT1-MMP fluorogenic substrate with recombinant MT1-MMP catalytic domain. In kind it is biochemical. On the procedure: Examples of fluorogenic substrate specificity for MMPs are shown below.
Specifically, MT1-MMP substrate (7.5 mM) was injected into a 96-well polystyrene plate (Nalge Nunc International, Rochester, N.Y.) with a 1.0 ng/mL concentration of recombinant MT1-MMP catalytic domain (BIOMOL, Plymouth Meeting, Pa.) and fluorescence emission was recorded. A rapid rise in activity, as measured by fluorescence emission, plateaued around 90 minutes. […] (FIG. 15, top). In addition, full length MT1-MMP (pretreated with 10 mM p-aminophenylmercuric acetate) was incubated for 1 hour at 37° C. with or without an antibody specific for the catalytic domain of MT1-MMP (1000 ng/mL, Chemicon AB8102). After the incubation period, the MT1-MMP substrate was injected and fluorescence emission recorded.
(§1) In an additional set of experiments (FIG. 16), MT1-MMP catalytic domain (1000 ng/mL, BIOMOL, Plymouth Meeting, Pa.) was injected into a 96-well polystyrene plate (Nalge Nunc International, Rochester, N.Y.) with a 30 mM mixture of MT1-MMP substrate only or MT1-MMP substrate with MMP-2/9 (500 ng/mL, Chemicon; FIG. 16, top), MMP-8 (10 ng/mL, Calbiochem; FIG. 16, middle), or a disintegrin and metalloproteinase (ADAM)-10 and -17 cocktail (200 ng/mL, R&D Systems; FIG. 16, bottom).

Assay [2] deals with MMP-2/9 recombinant protein. The assay can be described thus: MMP-1, 2, 3, 7, 9 substrate incubated with MMP-2/9 recombinant protein. In kind it is biochemical. As to the method: Microdialysis: Microdialysis probes with a molecular weight cutoff of 20 kDa and an outer diameter of 0.5 mm were placed in the LV. The molecular weight cutoff of the microdialysis probe prevented any MMP species from traversing the membrane. A fluorogenic substrate specific for MMP-1, 2, 3, 7, and 9 (Calbiochem, La Jolla, Calif.) at a concentration of 60 ˜mol/L was stored in a 2.5 mL Bee Stinger® Gastight Syringe (Bioanalytical Systems, Inc) and infused at a rate of 5 ˜L/min through the 2 probes by the Baby Bee® Syringe Drive controlled by the MD-1020 Bee Hive Controller (Bioanalytical Systems, Inc). Fluorescence emitted via substrate cleavage deter-mined MMP activity. Substrate was allowed to equilibrate for 20 minutes before the beginning of the protocol. All tubing and syringes were protected from light. The specificity of this substrate was determined and performed as described for these fluorogenic substrates previously. […] With the addition of a broad spectrum MMP inhibitor (BB-94, 10 mmol/L, British Biotech), fluorescence emission was abolished.

A further assay concerns MMP-1, 2, 3, 7, 9. The assay can be described thus: Ex-vivo MMP-1, 2, 3, 7, 9 activity in myocardial extracts. In kind it is biochemical, human. Details: dose or concentration left out as unconfirmed. The settings on record: BB94; FIG. 18. On the procedure:
In addition, these substrates were used to examine MMP activity ex-vivo using myocardial samples from both human and animal specimens. The frozen myocardial tissue was submerged in 2 mL of ice-cold buffer (Cacodylic Acid, NaCl, ZnCl2, CaCl2, NaN3, 0.08% Triton X), homogenized, and spun at 8,000 G for 10 minutes at 4C. The supernatant was then measured, tested for protein concentration, aliquoted, and stored at −70° C. Final protein concentrations were diluted in a reaction buffer containing (0.05% Brij, 50 mM Tris-HCl, 0.2 M NaCl, 10 mM CaCl2, […]) and the samples were loaded onto a 96-well microplate (FluoroNunc® 96-Well Polystyrene Plates) and placed in a 37° C. temperature controlled unit allowing for continuous fluorescence measurements (FLUOstar® Galaxy, BMG Labtechnologies). Substrate (MMP Substrate, Fluorogenic, Calbiochem) was diluted in the same reaction buffer and loaded into the FLUOstar® for automatic injection (12 mM). […] Excitation was set to (280 nm) and emission was set to (360 nm) and readings were taken every 2 minutes following the addition of the substrate. The reaction was allowed to proceed to 200 recordings (398 minutes). This reaction using the MMP-1, 2, 3, 7, 9 specific substrate was linear with increasing concentrations.

For another assay, the system named is MT1-MMP catalytic domain. Kind of assay: Validation of LTBP-1 fluorogenic substrate with MT1-MMP catalytic domain. In kind it is biochemical. The settings on record: 15 uM LTBP-1 substrate; 0007258 5 pM; BB94 1 uM; AB8102 1 mg/mL. An excerpt:
Previous studies have identified mutations within a similar type of domain in fibrillin-1, an LTBP-1 homologue, implicated in Marfan Syndrome (MFS). Furthermore, MFS has been associated with the over-stimulation of TGF-Beta signaling as a result of fibrillin-1 mutation. Using this unique sequence, a fluorogenic peptide was constructed and validated. This peptide sequence was synthesized in a caged fluorogenic construct (AnaSpec Inc, CA; newly assigned peptide name:SCJJ-1) with a certified HPLC purity of >98% FIG. 28. Using the incubation conditions and fluorescent equipment described in the previous section, and a specific excitation/emission wavelength (340/483 nm), 15 uM of LTBP-1 was exposed to increasing concentrations of the MT1-MMP catalytic domain FIG. 28.
Thus, an LTBP-1 peptide sequence constructed and validated that is specifically cleaved by MT1-MMP.

Another assay concerns the target T2, MMP-14 (Homo sapiens, UniProt P50281).
T2 construct: from tissue; host or cells: human myocardium, crude homogenate
Kind of assay: Ex-vivo MMP-14 activity in myocardial extracts. In kind it is biochemical. Details: dose or concentration left out as unconfirmed. The conditions noted are these: BB94; FIG. 22. On the procedure: A similar experiment was done utilizing the fluorogenic substrate specific for MT1-MMP (MMP-14). Substrate (MMP-14 Substrate I, Fluorogenic, Calbiochem) was diluted in the same reaction buffer and loaded into the FLUOstar® for automatic injection (10 μM). […] The reaction was allowed to proceed in which 200 recordings (398 minutes) were collected. This reaction using the MMP-14 specific substrate was linear with increasing concentrations of a recombinant MMP-14 catalytic domain ([…], Chemicon) (FIG. 20).

In another assay the test system is MMP-2 and MMP-9. Details: species or system pigs. The settings on record: pig, in vivo.
For the next assay, the target named is angiotensin receptor (Sus scrofa, UniProt P30555). The conditions noted are these: bolus of 1 mg/kg, infusion of 3 ng/kg/h; previously found; cited from earlier work.
Another assay concerns purified MMP-2/9. Kind of assay: In vitro microdialysis of MMP substrate in immersion solution with purified MMP-2/9. The conditions noted are these: infused at 2.5 ml/min, purified MMP-2/9, 37° C. In kind it is biochemical.
The target in a further assay is T3, MMP-8 (Homo sapiens, UniProt P22894).
T3 construct: purchased Calbiochem
The assay can be described thus: Specificity of MT1-MMP substrate: incubation with MMP-8. In kind it is biochemical. The conditions noted are these: MMP-8 10 ng/mL alone, 30 mM substrate. As to the method: as §1

The subject of another assay is MMP-2/9. Kind of assay: Specificity of MT1-MMP substrate: incubation with MMP-2/9. In kind it is biochemical. The conditions noted are these: MMP-2/9 500 ng/mL alone, 30 mM substrate. On the procedure: as §1
Assay [3] relates to a disintegrin and metalloproteinase (ADAM)-10 and -17. Kind of assay: Specificity of MT1-MMP substrate: incubation with ADAM-10 and -17 cocktail. In kind it is biochemical. The settings on record: ADAM-10 and -17 cocktail 200 ng/mL alone, 30 mM substrate. On the procedure: as §1

Where two headings read alike, the source gives them in different places. Square brackets hold non-standard residues; d marks the D form. * marks the point of attachment. Dpa = 3-(2,4-dinitrophenyl)-L-2,3-diaminopropionyl; Dnp = O=[N+]([O-])c1ccc(*)c([N+](=O)[O-])c1; Mca = COc1ccc2c(CC(=O)*)cc(=O)oc2c1; Cha = N[C@@H](CC1CCCCC1)C(=O)O; Nva = CCC[C@H](N)C(=O)O; Mob = COc1ccc(C*)cc1

T3 sequence (P22894 101-467, species assumed): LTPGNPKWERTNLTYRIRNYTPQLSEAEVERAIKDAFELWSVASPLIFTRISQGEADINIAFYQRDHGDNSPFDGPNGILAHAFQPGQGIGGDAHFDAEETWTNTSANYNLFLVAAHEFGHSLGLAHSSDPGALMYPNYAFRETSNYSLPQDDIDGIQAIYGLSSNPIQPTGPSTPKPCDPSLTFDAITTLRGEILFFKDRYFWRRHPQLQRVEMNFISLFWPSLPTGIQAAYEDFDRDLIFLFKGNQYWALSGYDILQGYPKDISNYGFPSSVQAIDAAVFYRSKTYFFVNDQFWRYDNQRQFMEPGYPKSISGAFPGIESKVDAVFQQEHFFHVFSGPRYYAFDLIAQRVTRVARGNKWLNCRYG
angiotensin receptor, sequence (P30555 whole entry, the tested form may be a part): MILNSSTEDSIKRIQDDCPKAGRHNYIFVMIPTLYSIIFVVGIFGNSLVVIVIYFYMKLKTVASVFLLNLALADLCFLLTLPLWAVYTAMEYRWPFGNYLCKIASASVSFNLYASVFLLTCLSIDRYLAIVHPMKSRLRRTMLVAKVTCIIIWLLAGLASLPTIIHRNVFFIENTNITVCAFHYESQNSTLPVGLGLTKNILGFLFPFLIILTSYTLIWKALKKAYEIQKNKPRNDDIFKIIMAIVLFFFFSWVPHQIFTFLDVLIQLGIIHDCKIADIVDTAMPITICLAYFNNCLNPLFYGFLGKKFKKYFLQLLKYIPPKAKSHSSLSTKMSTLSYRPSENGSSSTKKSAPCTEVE
Experimental for MMP-2 and MMP-9: Myocardial Infarction: Mature pigs (n 5 20, Yorkshire, 35-40 kg, Hambone Farms) were instrumented to obtain indexes of LV global and regional function as well as for the measurement of myocardial interstitial MMPs. […] A loading dose of 50 mg sufentanil (Elkins-Sinn) was then administered, and a maintenance infusion of lactated Ringer solution (400 ml/h) and morphine 60 mg/h, Elkins-Sinn) was initiated. A continuous infusion of tubocurarine (3 mg/h, Bristol-Myers-Squibb) and lidocaine (120 mg/h, Elkins-Sinn) was established. In preliminary studies, this anesthetic protocol provided a deep anesthetic plane and stable hemodynamic profiles for at least 8 hours.
In a second set of studies, interstitial myocardial MMP activity was directly quantified using a MMP fluorogenic substrate. For these studies, microdialysis probes containing a 20-kDa molecular mass cutoff (CMA/20, CMA/Microdialysis) membrane were placed within the mid-myocardium. This molecular mass cutoff effectively excluded MMP species from directly traversing from the interstitial space into the microdialysis membrane. […] The samples were read using excitation and emission wavelengths of 280 and 360 nm, respectively (Gilford Fluoro IV; Oberlin, Ohio). […]

For the compound “DABCYL-GABA-Arg-Pro-Lys-Pro-Val-Glu-Nva-Trp-Arg-Glu(EDANS)-Ala-Lys-NH2 [SEQ ID NO: 2]”, in the assay with MMPs, the Specificity entry is “MMP-3,5,9,13”.
For the compound “MCA-Pro-Cha-Gly-Nva-His-Ala-Dpa-NH2 (Mca-P[Cha]G[Nva]HA-{Dpa-NH2}) [SEQ ID NO: 7]”, in the assay on MMPs, the Specificity result is listed as “MMP-13”.
Turning to `CNC(=O)[C@H](Cc1ccccc1)NC(=O)[C@H](CC(C)C)[C@H](CSc1cccs1)C(=O)NO` [BB94], the “fluorescence emission with addition of BB94” value in assay [1] (MT1-MMP recombinant catalytic domain, FIG. 13) is “abolishment of fluorescence emission”. Moreover, the “fluorescence emission with addition of inhibitor” value in assay [2] (BB-94, MMP-2/9 500 ng/mL) is listed as “abolished”. For the same compound, in the assay with MMP-1, 2, 3, 7, 9, the “inhibition of MMP-1, 2, 3, 7, 9 substrate reaction” value was “significantly inhibited”. Besides, the “fluorescent activity on co-incubation” value in the assay on MT1-MMP catalytic domain was “extinguished all fluorescent activity”. Also, the “inhibition of MMP-14 substrate reaction” value against MMP-14 is listed as “significantly inhibited”.
On to `CNC(=O)[C@H](Cc1c[nH]c2ccccc12)NC(=O)[C@@H](CC(=O)NO)CC(C)C` [galardin], for which the “fluorescent activity in interstitial microdialysate samples on coinfusion with MMP substrate” value with MMP-2 and MMP-9 is on record as “abolished all fluorescent activity”.
In the case of `CCCCC(=O)N(Cc1ccc(-c2ccccc2-c2nnn[nH]2)cc1)[C@H](C(=O)O)C(C)C` [Valsartan], the “effect on angiotensin pressor response” value on angiotensin receptor is on record as “inhibited the angiotensin pressor response”.
Take Dnp-PLGLGMWSR-OH: the “time at which relative fluorescence plateaued” value in the assay with purified MMP-2/9 is not above 60 min.
Turning to “DNP-Pro-Leu-Gly-Met-Trp-Ser-Arg-OH (Dnp-PLGMWSR-OH; SMILES CSCC[C@H](NC(=O)CNC(=O)[C@H](CC(C)C)NC(=O)[C@@H]1CCCN1c1ccc([N+](=O)[O-])cc1[N+](=O)[O-])C(=O)N[C@@H](Cc1c[nH]c2ccccc12)C(=O)N[C@@H](CO)C(=O)N[C@@H](CCCNC(=N)N)C(=O)O) [SEQ ID NO: 9]”, the Specificity result in the assay on MMPs is listed as “MMP-2,9”.
Regarding “DNP-Pro-Leu-Gly-Leu-Trp-Ala-D-Arg-NH2 (Dnp-PLGLWA[dR]-NH2; SMILES CC(C)C[C@H](NC(=O)CNC(=O)[C@H](CC(C)C)NC(=O)[C@@H]1CCCN1c1ccc([N+](=O)[O-])cc1[N+](=O)[O-])C(=O)N[C@@H](Cc1c[nH]c2ccccc12)C(=O)N[C@@H](C)C(=O)N[C@H](CCCNC(=N)N)C(N)=O) [SEQ ID NO: 1]”, the Specificity entry in the assay with MMPs was “MMP-1,2,3,7,9”; with MMPs (listed as SEQ ID NO:1), “cleaved selectively by MMPs 1, 2, 3, 7, 9”. Also, the “time to steady-state fluorescence emission” value in [2] (MMP-2/9 recombinant protein 500 ng/mL) was not above 60 min.
For “DNP-Pro-Tyr-Ala-Tyr-Trp-Met-Arg-OH (Dnp-PYAYWMR-OH; SMILES CSCC[C@H](NC(=O)[C@H](Cc1c[nH]c2ccccc12)NC(=O)[C@H](Cc1ccc(O)cc1)NC(=O)[C@H](C)NC(=O)[C@H](Cc1ccc(O)cc1)NC(=O)[C@@H]1CCCN1c1ccc([N+](=O)[O-])cc1[N+](=O)[O-])C(=O)N[C@@H](CCCNC(=N)N)C(=O)O) [SEQ ID NO: 4]”, the Specificity result in the assay with MMPs is listed as “MMP-3”.
Turning to “DNP-Arg-Pro-Leu-Ala-Leu-Trp-Arg-Ser-OH (Dnp-RPLALWRS-OH; SMILES CC(C)C[C@H](NC(=O)[C@H](C)NC(=O)[C@H](CC(C)C)NC(=O)[C@@H]1CCCN1C(=O)[C@H](CCCNC(=N)N)Nc1ccc([N+](=O)[O-])cc1[N+](=O)[O-])C(=O)N[C@@H](Cc1c[nH]c2ccccc12)C(=O)N[C@@H](CCCNC(=N)N)C(=O)N[C@@H](CO)C(=O)O) [SEQ ID NO: 5]”, the Specificity result in the assay with MMPs is reported as “MMP-7”.
With “MCA-Pro-Leu-Ala-Cys(p-OMeBz)-Trp-Ala-Arg(Dpa)-NH2 (Mca-PLAC(Mob)WAR(Dpa)-NH2) [SEQ ID NO: 8]”, the “fluorescence emission from the substrate” value in assay [1] (injection of MT1-MMP catalytic domain 1000 ng/mL, in all protease cocktails) is “rapid rise in fluorescence emission”; in the assay with MMP-8, “failed to cause fluorescence emission”; in the assay on MMP-2/9, “failed to cause fluorescence emission”; in assay [3] it was “failed to cause fluorescence emission”. The “time at which fluorescence emission plateaued” value in assay [1] (substrate 7.5 mM, 1.0 ng/mL recombinant MT1-MMP catalytic domain) is “around 90 minutes”. The results for the Specificity result in the assay on MMPs and with MMPs (listed as SEQ ID NO:8) were “MMP-14” and “cleaved selectively by MMP-14”, respectively.
“DNP-Pro-Leu-Ala-Leu-Trp-Arg-OH (Dnp-PLALWR-OH; SMILES CC(C)C[C@H](NC(=O)[C@H](C)NC(=O)[C@H](CC(C)C)NC(=O)[C@@H]1CCCN1c1ccc([N+](=O)[O-])cc1[N+](=O)[O-])C(=O)N[C@@H](Cc1c[nH]c2ccccc12)C(=O)N[C@@H](CCCNC(=N)N)C(=O)O) [SEQ ID NO: 3]”: in the assay with MMPs, the Specificity entry was “MMP-1”.
Take “DNP-Pro-Leu-Ala-Tyr-Trp-Ala-Arg-OH (Dnp-PLAYWAR-OH; SMILES CC(C)C[C@H](NC(=O)[C@@H]1CCCN1c1ccc([N+](=O)[O-])cc1[N+](=O)[O-])C(=O)N[C@@H](C)C(=O)N[C@@H](Cc1ccc(O)cc1)C(=O)N[C@@H](Cc1c[nH]c2ccccc12)C(=O)N[C@@H](C)C(=O)N[C@@H](CCCNC(=N)N)C(=O)O) [SEQ ID NO: 6]”: the Specificity entry in the assay with MMPs is “MMP-8”.

The record behind these values is patent publication US8771714B2, “Systems and methods for in vivo measurement of interstitial biological activity, processes and/or compositions” (MUSC Foundation for Research Development, priority 2006, dated 2014).
